Experimental data taken from patent publication US4962109A, “Insecticidally and acaricidally active pyrimidine esters and intermediates therefor” (Imperial Chemical Industries PLC, priority 1985, dated 1990).
Where two headings read alike, the source gives them in different places.

Key:
Format in all cases: in vivo
[1] = test system: Nephotettix cincticeps (green leaf hopper - nymphs); experiment: Contact test on green leaf hopper nymphs (NC), Rice plant, mortality; settings: 48 h, read-out: NC grading of mortality
Experimental: (§1) The activity of the Product was determined using a variety of insect pests. The Product was used in the form of liquid preparations containing 500, 250 or 100 parts per million (ppm) by weight of the Product. The preparations were made by dissolving the Product in acetone and diluting the solutions with water containing 0.01% by weight of a wetting agent sold under the trade name "LISSAPOL" NX until the liquid preparations contained the required concentration of the Product. "Lissapol" is a Registered Trade Mark.
(§2) The test procedure adopted with regard to each pest was basically the same and comprised supporting a number of the pests on a medium which was usually a host plant or a foodstuff on which the pests feed, and treating either or both the pests and the medium with the preparations. The mortality of the pests was then assessed at periods usually varying from one to three days after the treatment.
(§3) The results of the tests are given in Table III for each of the Products, at the rate in parts per million given in the second column as a grading of mortality designated as A, B or C wherein A indicates 80-100% mortality or knockdown, B indicates 50-79% mortality or knockdown and C indicates less than 50% mortality or knockdown.
NC Nephotettix cincticeps

[2] = test system: Musca domestica (houseflies - adults); experiment: Contact test on houseflies - adults (MD), Cotton wool/sugar, mortality; settings: 72 h, read-out: MD grading of mortality
Experimental: as §1, §2, §3

[3] = test system: Musca domestica (houseflies - adults); experiment: Knockdown test on houseflies - adults (MD/KD), Cotton wool/sugar; settings: 500 ppm, 4 hours, read-out: MD/KD grading of knockdown
Experimental: as §1, §2
In the case of the species Musca domestica (housefly), additional tests to determine the knockdown effect of the compounds were performed. PG,163
as §3

[4] = test system: Tetranychus urticae (spider mites - adult); experiment: Contact test on spider mites - adult (TUa), French bean leaf, mortality; settings: 72 h, read-out: TUa grading of mortality
Experimental: as §1, §2, §3

[5] = test system: Blattella germanica (cockroach nymphs); experiment: Contact test on cockroach nymphs (BG/C), Plastic pot, mortality; settings: 48 h, read-out: BG/C grading of mortality
Experimental: as §1, §2, §3
BG/C Blattella germanica

[6] = test system: Heliothis virescens (tobacco budworm - larvae); experiment: Residual test on tobacco budworm larvae (HV), Cotton leaf, mortality; settings: 48 h, read-out: HV grading of mortality
Experimental: as §1, §2, §3
(tobacco budworm - larvae)

Myzus persicae (aphids) = experiment: Contact test on aphids (MP), Chinese Cabbage leaf, mortality; settings: 72 h, read-out: MP grading of mortality
Experimental: as §1, §2, §3

[7] = test system: Diabrotica balteata (rootworm larvae); experiment: Residual test on rootworm larvae (DB), Filter paper/maize seed, mortality; settings: 48 h, read-out: DB grading of mortality
Experimental: as §1, §2, §3

[8] = test system: Spodoptera exigua (lesser army worm - larvae); experiment: Residual test on lesser army worm larvae (SP), Cotton leaf, mortality; settings: 48 h, read-out: SP grading of mortality
Experimental: as §1, §2, §3
(lesser army worm - larvae)

[9] = test system: Tetranychus urticae (spider mites - ova); experiment: Contact test on spider mites - ova (TUe), French bean leaf, mortality; settings: 144 h, read-out: TUe grading of mortality
Experimental: as §1, §2, §3

Compound | mortality at 500 ppm [1] [%] | mortality at 500 ppm [2] [%] | pest or weed control at 500 ppm [3] [%] | mortality at 500 ppm [4] [%] | mortality at 500 ppm [5] [%] | mortality at 500 ppm [6] [%] | mortality at 500 ppm (Myzus persicae (aphids)) [%] | mortality at 500 ppm [7] [%] | mortality at 500 ppm [8] [%] | mortality at 500 ppm [9] [%] | mortality at 500 ppm ([1]; 500 ppm, contact, 2 days) [%] | mortality at 500 ppm ([2]; 500 ppm, contact, 3 days) [%] | mortality at 500 ppm ([4]; 500 ppm, contact, 3 days) [%] | mortality at 500 ppm ([5]; 500 ppm, contact, 2 days) [%] | mortality at 500 ppm (Myzus persicae (aphids); 500 ppm, contact, 3 days) [%] | mortality at 500 ppm ([7]; 500 ppm, residual, 2 days) [%] | mortality at 500 ppm ([8]; 500 ppm, residual, 2 days) [%] | mortality at 500 ppm ([9]; 500 ppm, contact, 6 days) [%]
CC[Si](CC)(CC)CCCc1c(F)c(F)c(COC(=O)C(c2cnc(C(C)(C)C)nc2)C(C)(C)C)c(F)c1F (racemic) [Compound 218, 4-[3-(triethylsilyl)prop-1-yl]-2,3,5,6-tetrafluorobenzyl (RS)-2-[2-(1,1-dimethylethyl)pyrimidin-5-yl]-3,3-dimethylbutanoate] | 80 to 100 | < 50 | < 50 | 80 to 100 | < 50 | < 50 | 80 to 100 | < 50 | < 50 | < 50 | – | – | – | – | – | – | – | –
CC(C)C(=O)OCc1c(F)c(F)c(COC(=O)C(c2cnc(C(C)(C)C)nc2)C(C)(C)C)c(F)c1F (racemic) [Compound 173, 4-[(2-methylpropionyl)oxymethyl]-2,3,5,6-tetrafluorobenzyl (RS)-2-[2-(1,1-dimethylethyl)pyrimidin-5-yl]-3,3-dimethylbutanoate] | – | – | < 50 | – | – | 80 to 100 | – | – | – | – | 80 to 100 | < 50 | 80 to 100 | < 50 | 80 to 100 | < 50 | 80 to 100 | < 50
C[C@@H](OC(=O)[C@@H](c1cnc(C2(C)CC2)nc1)C(C)(C)C)c1cccc(Oc2ccccc2)n1 (racemic) [Compound 203, (RS)-1-(6-phenoxypyrid-2-yl)ethyl (RS)-2-[2-(1-methylcyclopropyl)pyrimidin-5-yl]-3,3-dimethylbutanoate] | – | – | 80 to 100 | – | – | 80 to 100 | – | – | – | – | 80 to 100 | 80 to 100 | 80 to 100 | 50 to 79 | 80 to 100 | < 50 | 80 to 100 | 50 to 79
CCOc1c(F)c(COc2ccccc2)c(F)c(F)c1COC(=O)C(c1cnc(C(C)(C)C)nc1)C(C)(C)C (racemic) [Compound 194, 2,3,5-trifluoro-6-ethoxy-4-(phenoxymethyl)benzyl (RS)-2-[2-(1,1-dimethylethyl)pyrimidin-5-yl]-3,3-dimethylbutanoate] | – | – | < 50 | – | – | < 50 | – | – | – | – | < 50 | < 50 | 80 to 100 | < 50 | < 50 | < 50 | 80 to 100 | < 50
CC(C)OC(=O)c1c(F)c(F)c(COC(=O)C(c2cnc(C(C)(C)C)nc2)C(C)(C)C)c(F)c1F (racemic) [Compound 171, 4-[(prop-2-yl)oxycarbonyl]-2,3,5,6-tetrafluorobenzyl (RS)-2-[2-(1,1-dimethylethyl)pyrimidin-5-yl]-3,3-dimethylbutanoate] | – | – | < 50 | – | – | < 50 | – | – | – | – | < 50 | < 50 | 80 to 100 | < 50 | < 50 | < 50 | < 50 | < 50
COCc1c(F)c(F)c(CSC(=O)C(c2cnc(C(C)(C)C)nc2)C(C)(C)C)c(F)c1F (racemic) [Compound 195, 4-(methoxymethyl)-2,3,5,6-tetrafluorobenzyl (RS)-2-[2-(1,1-dimethylethyl)pyrimidin-5-yl]-3,3-dimethylbutanthioate] | – | – | < 50 | – | – | 80 to 100 | – | – | – | – | 80 to 100 | < 50 | 80 to 100 | < 50 | 80 to 100 | 80 to 100 | 80 to 100 | 80 to 100
COCc1c(F)c(F)c(COC(=O)C(c2cnc(C(C)C)nc2)C(C)(C)C)c(OC)c1F (racemic) [Compound 76, 3,5,6-trifluoro-2-methoxy-4-(methoxymethyl)benzyl (RS)-2-[2-(1-methylethyl)pyrimidin-5-yl]-3,3-dimethylbutanoate] | – | – | 80 to 100 | – | – | 80 to 100 | – | – | – | – | 80 to 100 | 50 to 79 | 80 to 100 | 50 to 79 | 80 to 100 | < 50 | 80 to 100 | < 50
CC(OC(=O)C(c1cnc(C2CC2)nc1)C(C)(C)C)c1cccc(Oc2ccccc2)n1 (racemic) [Compound 78, RS-1-(6-phenoxypyrid-2-yl)ethyl (RS)-2-(2-cyclopropylpyrimidin-5-yl)-3,3-dimethylbutanoate] | – | – | 80 to 100 | – | – | 80 to 100 | – | – | – | – | 80 to 100 | < 50 | 80 to 100 | 50 to 79 | 80 to 100 | 80 to 100 | 80 to 100 | 50 to 79
CC(C)(C)c1ncc(C(C(=O)OCc2c(F)c(F)c(CN3CCCCC3)c(F)c2F)C(C)(C)C)cn1 (racemic) [Compound 177, 4-[(piperidin-1-yl)methyl]-2,3,5,6-tetrafluorobenzyl (RS)-2-(2-(1,1-dimethylethyl)pyrimidin-5-yl)-3,3-dimethylbutanoate] | – | – | 80 to 100 | – | – | < 50 | – | – | – | – | 80 to 100 | < 50 | 80 to 100 | < 50 | 80 to 100 | < 50 | 80 to 100 | < 50
CC(C)(C)c1ncc(C(C(=O)OCc2cccc(Oc3ccc(Cl)cc3)c2)C(C)(C)C)cn1 (racemic) [Compound 180, 3-(4-chlorophenoxy)benzyl (RS)-2-[2-(1,1-dimethylethyl)pyrimidin-5-yl]-3,3-dimethylbutanoate] | – | – | 80 to 100 | – | – | 80 to 100 | – | – | – | – | 80 to 100 | 80 to 100 | 80 to 100 | < 50 | 80 to 100 | < 50 | 80 to 100 | < 50
CC(C)(C)c1ncc(C(C(=O)OCc2ccc(F)c(Oc3ccccc3)c2)C(C)(C)C)cn1 (racemic) [Compound 25, 4-fluoro-3-phenoxybenzyl (RS)-2-[2-(1,1-dimethylethyl)pyrimidin-5-yl]-3,3-dimethylbutanoate] | – | – | 80 to 100 | – | – | 80 to 100 | – | – | – | – | 80 to 100 | < 50 | 80 to 100 | < 50 | 80 to 100 | 50 to 79 | 80 to 100 | 80 to 100
Cc1ncc(C(C(=O)OC(C)c2cccc(Oc3ccccc3)n2)C(C)(C)C)cn1 (racemic) [Compound 205, RS-1-(6-phenoxypyrid-2-yl)ethyl (RS)-2-(2-methylpyrimidin-5-yl)-3,3-dimethylbutanoate] | – | – | < 50 | – | – | 80 to 100 | – | – | – | – | 80 to 100 | < 50 | 80 to 100 | < 50 | 80 to 100 | < 50 | 80 to 100 | < 50
